From patent US8828442B2, “Pharmaceutical solid dispersions” (Bend Research, Inc., priority 1999, dated 2014)

Assay: In vitro dissolution test in Model Fasted Duodenal (MFD) solution, before storage
Assay type: physicochemical
Conditions: before aging; for AUC90 fresh: AUC from 0 to 90 minutes, MFD solution; for MDC fresh: maximum drug concentration, MFD solution pH 6.5, 37° C.
Excerpt: The concentration of dissolved drug is typically measured as a function of time by sampling the drug and plotting concentration vs. time so that the MDC can be ascertained. To avoid drug particulates which would give an erroneous determination, the test solution is either filtered or centrifuged. “Dissolved drug” is typically taken as that material that either passes a 0.45 μm syringe filter or, alternatively, the material that remains in the supernatant following centrifugation. Filtration can be conducted using a 13 mm, 0.45 μm polyvinylidine difluoride syringe filter sold by Scientific Resources under the trademark TITAN®. Centrifugation is typically carried out in a polypropylene microcentrifuge tube by centrifuging at 13,000 G for 60 seconds. Other similar filtration or centrifugation methods can be employed and useful results obtained. For example, using other types of microfilters may yield values somewhat higher or lower (±10-40%) than that obtained with the filter specified above but will still allow identification of preferred dispersions. It is recognized that this definition of “dissolved drug” encompasses not only monomeric solvated drug molecules but also a wide range of species such as polymer/drug assemblies that have submicron dimensions such as drug aggregates, aggregates of mixtures of polymer and drug, micelles, polymeric micelles, colloidal particles or nanocrystals, polymer/drug complexes, and other such drug-containing species that are present in the filtrate or supernatant in the specified dissolution test.
Dissolution performance of the material from Example 1, before exposure to increased temperature and humidity, was measured as follows. In a 37° C. controlled temperature box, 3.0 mg of the material of Example 1 was inserted into a polypropylene microcentrifuge tube (Sorenson Bioscience Inc.). The theoretical MDC in solution (i.e., if all drug dissolved) was 490 μg/ml [(3.0 mg×1000 μg/mg)×(0.33 g drug/g dispersion)×0.90 salt factor×0.98 drug assay/1.8 ml=490 μg/ml]. […] The tube was closed and a timer was started. […] Each sample was centrifuged, sampled and resuspended as described, then diluted with 250 μL HPLC grade methanol (Burdick & Jackson) and the concentration of drug was determined by HPLC. Samples were taken after 4, 10, 20, 40, and 90 minutes, analyzed, and drug concentrations for each time point were calculated. […]
In addition, the AUC90 value was calculated for Example 1. […] AUC between two individual time points within the curve was determined as follows. […] AUC90 is determined by calculating the sum of these areas defined by the drug concentrations observed at t1 and t2 equal to: 0 and 4 minutes, 4 and 10 minutes, 10 and 20 minutes, 20 and 40 minutes, and 40 and 90 minutes.

Compound `CCC(CC)Nc1cc(C)nc(Oc2c(C)cc(C)cc2C)c1C.Cl` [Comparative Example C9, [3,6-Dimethyl-2-(2,4,6-trimethyl-phenoxy)-pyridin-4-yl]-(1-ethyl-propyl)-amine hydrogen chloride] has an AUC90 fresh of 165000 ng·h/mL and an MDC fresh of 135 µg/mL.
Work on `CCC(CC)Nc1cc(C)nc(Oc2c(C)cc(C)cc2C)c1C` [Comparative Example C10, [3,6-Dimethyl-2-(2,4,6-trimethyl-phenoxy)-pyridin-4-yl]-(1-ethyl-propyl)-amine] yielded an AUC90 fresh of 23300 ng·h/mL and an MDC fresh of 22 µg/mL.
